We go through three compounds from publication PMC8584985, “Characterization of a new type of neuronal 5-HT G- protein coupled receptor in the cestode nervous system” (PLoS ONE, 2021).

Holding throughout (type): cell-based, Echinococcus canadensis
Test [1] concerns Eca-5-HT1a. Description: FLIPR calcium assay, agonist concentration-response.
The subject of test [2] is T1, Eca-5-HT1a.
T1 construct: full-length, human codon optimized cDNA in HEK293-GNA15 cells
In words: FLIPR calcium assay (Fluo-4), HEK293-GNA15 cells transiently expressing the receptor; a stable line gave EC50 […].

Test [3] deals with T2, Eca-5-HT1a.
T2 construct: full-length mutant in HEK293-Gα15 cells
Description: FLIPR calcium assay on mutant receptor.

The EC50 is the midpoint of the concentration-response curve.

Molecules are shown by their SMILES.

Turning to `CC(N)Cc1c[nH]c2ccc(O)cc12` (stereo not drawn) [α-MTS, α-methylserotonin], the EC50 with Eca-5-HT1a [1] was determined as 2730 ± 730 nM.
The same measure, in the same setting: for `COc1ccc2[nH]cc(CCN)c2c1` [5-MTT, 5-methoxytryptamine] the value was 98 ± 50 nM.
For the compound `NCCc1c[nH]c2ccc(O)cc12` [serotonin], the results for the EC50 with Eca-5-HT1a [2] and in the test on Eca-5-HT1a [3] were 7.74 ± 0.63 nM and 11500 nM, respectively.
